# Laboratory results reported in article PMC11062894, “Protein-based bandpass filters for controlling cellular signaling with chemical inputs” (Nature Chemical Biology, 2023).
# “And” between values parts separate entries of the source, which are not always exact repeats. Equal values may be shown once.
# Test system: GEMS receptors with CBPA11 (BclXL–LD3 and BclXLhigh variants), STAT3-driven SEAP in HEK293T cells
# Assay: GEMS SEAP reporter assay, CBPA11 (BclXLhigh, LD3-v and BclXL-v variants) with A-1155463
# Assay type: cell-based
# Parameters: key to Raw data (SEAP) / SEAP, replicate values / Raw data of Figure 5b / Raw data Figure 5e / Raw data of Independent repeat of CBPA11-v1 vs CBPA11-v1-LD3v3 / Raw data of Independent repeat of CBPA11-v3 vs CBPA11-v3-LD3v3 / Raw data of Figure 5b, CBPA11-v1-LD3v3 (SEAP reporter raw value, single replicate) / Raw data of Figure 5b, CBPA11-v1 (SEAP reporter raw value, single replicate): SEAP activity in U/L in culture supernatant
# Conditions: for SEAP (U/L): Figure 4d, representative data and independent repeats 1, 2 (triplicates); for Normalized data (SEAP) / Raw data (SEAP): SuppFigure 9a
# Excerpt: To rationally design a CBP responding to a chemical input, we used BclXL as the druglow receptor, LD3 as the designed binder and a designed BclXL variant as the drughigh receptor (referred to as BclXLhigh) to construct a CBP responsive to BclXL inhibitors (Fig. 4a). To design BclXLhigh, we used a multistate design computational protocol described elsewhere[26] […] Thus, BclXLhigh-v(1–3) were chosen as the functional drughigh receptors, resulting in three A-1155463-controlled CBPs (referred to as CBPA11-v(1–3)) (Fig. 4c–e).
# HEK293T cells were seeded in a 96-well plate 24 h before transfection. The transfection mix in each well consisted of 3 ng of constitutive human CMV promoter driven mammalian STAT3 expression vector (PhCMV-STAT3-pA), 30 ng of STAT3-induced reporter expression (OStat3-PhCMVmin-SEAP-pA) and 50 ng of expression vectors for each GEMS receptor chain (PSV40-IgK-(drughigh receptor)-EpoRm-IL-6RBm-pA and PSV40-IgK-(druglow receptor-GGGGSX3-LD3)-EpoRm-IL-6RBm-pA). For the specific drughigh receptor and druglow receptor used in the different cellular assays, they are indicated as wild type or with mutations. Then, plasmid DNA was mixed with 50 μl opti-MEM (Thermo Fisher) and 600 ng of polyethyleneimine (Polysciences, catalog no. 24765-1). For drug treatment experiments, drugs were added 12 h post-transfection and incubated with cells for 24 h before the SEAP reporter detection assay.
# SEAP activity (U l^−1) in cell culture supernatants was quantified by kinetic measurements at 405 nm (1 minute per measurement for 30 cycles) of absorbance increase due to phosphatase-mediated hydrolysis of para-nitrophenyl phosphate (pNPP).
# Binding affinities of SPR drug competition assays were calculated using three-parameter nonlinear regression in GraphPad Prism (v.8.3.0). Representative data of cell assays are presented as individual values and mean values (bars). n = 3 refers to biological replicates. All IC50 or EC50 values of cell assays reported were calculated using four-parameter nonlinear regression ± s.d. Bandpass features of cutoff concentrations and Bandwidth90% were estimated based on the curve fitted using bell-shaped curve nonlinear regression in GraphPad Prism (v.8.3.0). […]
# Supplementary Figure 4: Design, screening and validation of BclXLhigh variants. a) Screening of BclXLhigh variants in the GEMS platform. […]
# Dissociation constant measurement of BclXLhigh-v(1-3) and LD3. Equilibrium curves are fitted using […]
# BclXLhigh-v1 (purple), BclXLhigh-v2 (blue), […]
# a) Bcl2high-based bandpass filter designs were developed and to respond to different concentrations of […]
# corresponding inhibitor. c) Screening of Bcl2high-based bandpass filter variants in the GEMS platform.
# The designed binder LD3 was fused to the druglow-receptor (PSV40-IgK-Bcl2-LD3-EpoRm-IL-6RBm-pA) in one EpoR chain and Bcl2high variants with the insensitive Bcl2 (iBcl2) as control in the other EpoR chain (PSV40-IgK-Bcl2high-EpoRm-IL-6RBm-pA). HEK293T cells were transfected with indicated […]
# the mean of six biological replicates ± s.d., overlaid with a scatter dot plot of the original data points.
# (1 picture or pasted object on this page, not shown here)
# Supplementary Figure 6: Binding affinities and drug resistances of Bcl2high-v(2,4,5) assessed by […]
# a) Measurement of dissociation constants for Bcl2high-v(2,4,5) and LD3 interactions. Equilibrium curves […]
# Bcl2high-v(2,4,5) measured by SPR. 5 μM of Bcl2 or indicated variants were mixed with 10 μM of […]
# Bcl2high-v2 (red), Bcl2high-v4
# Supplementary Figure 7: Screening of LD3 variants in CBPA11-v(1-3) and raw data of CBPA11-v(1,3) with LD3-v3 variant. a-c) Screening of LD3 and LD3-v(1-3) variants in complex with BclXL for more sensitive CBPA11-v1 (a), CBPA11-v2 (b), CBPA11-v3 (c) in the GEMS platform. The LD3 variants replaced the role of LD3 (PSV40-IgK-BclXL-LD3-v(1-3)-EpoRm-IL-6RBm-pA) in one EpoR chain and BclXLhigh-v(1-3) in the other EpoR chain (PSV40-IgK-BclXLhigh-V(1-3)-EpoRm-IL-6RBm-pA). HEK293T cells were transfected with […]
# [1] = CBPA11-v3-LD3v3, A-1155463 10000 nM
compound,measurement,setting,value
CN(C)CC#Cc1ccc(OCCCc2sc(N3CCc4cccc(C(=O)Nc5nc6ccccc6s5)c4C3)nc2C(=O)O)c(F)c1 [A-1155463],Normalized data of Figure 5b,[1],13.381 and 8.285 and 13.0686
same,Raw data of Figure 5b,[1],11.3652 and 7.762 and 13.9821
same,SEAP (U/L),A-1155463 1 nM,8.303 U/L and 10.1289 U/L and 7.12 U/L and 9.7586 U/L and 8.864 U/L and 9.857 U/L
same,SEAP (U/L),A-1155463 3.16 nM,6.744 U/L and 8.922 U/L and 8.703 U/L and 12.2331 U/L and 8.658 U/L and 8.903 U/L
same,Normalized data (SEAP),"BclXL-v1, A-1155463 1 nM",9.876
same,Raw data (SEAP),"BclXL-v1, A-1155463 1 nM",9.508
same,Normalized data (SEAP),"BclXL-v1, A-1155463 3.16 nM",8.253
same,Raw data (SEAP),"BclXL-v1, A-1155463 3.16 nM",7.946
same,Normalized data (SEAP),"BclXL-v1, A-1155463 100 nM",78.5603
same,Raw data (SEAP),"BclXL-v1, A-1155463 100 nM",75.6338
same,Normalized data (SEAP),"BclXL-v1, A-1155463 316 nM",100
same,Raw data (SEAP),"BclXL-v1, A-1155463 316 nM",96.2749
same,Normalized data (SEAP),"BclXL-v1, A-1155463 1000 nM",71.1878
same,Raw data (SEAP),"BclXL-v1, A-1155463 1000 nM",68.536
same,Normalized data (SEAP),"BclXL-v1, A-1155463 3160 nM",30.3077
same,Raw data (SEAP),"BclXL-v1, A-1155463 3160 nM",29.1787
same,Normalized data (SEAP),"BclXL-v1, A-1155463 10000 nM",12.5367
same,Raw data (SEAP),"BclXL-v1, A-1155463 10000 nM",12.0697
same,Normalized data (SEAP),"BclXL-v2, A-1155463 1 nM",3.201
same,Raw data (SEAP),"BclXL-v2, A-1155463 1 nM",9.801
same,Normalized data (SEAP),"BclXL-v2, A-1155463 3.16 nM",2.258
same,Raw data (SEAP),"BclXL-v2, A-1155463 3.16 nM",6.914
same,Normalized data (SEAP),"BclXL-v2, A-1155463 100 nM",100
same,Raw data (SEAP),"BclXL-v2, A-1155463 100 nM",306.188
same,Normalized data (SEAP),"BclXL-v2, A-1155463 316 nM",84.9937
same,Raw data (SEAP),"BclXL-v2, A-1155463 316 nM",260.24
same,Normalized data (SEAP),"BclXL-v2, A-1155463 1000 nM",53.3071
same,Raw data (SEAP),"BclXL-v2, A-1155463 1000 nM",163.22
same,Normalized data (SEAP),"BclXL-v2, A-1155463 3160 nM",38.1484
same,Raw data (SEAP),"BclXL-v2, A-1155463 3160 nM",116.806
same,Normalized data (SEAP),"BclXL-v2, A-1155463 10000 nM",23.1544
same,Raw data (SEAP),"BclXL-v2, A-1155463 10000 nM",70.8961
same,Normalized data (SEAP),"BclXL-v3, A-1155463 1 nM",38.0177
same,Raw data (SEAP),"BclXL-v3, A-1155463 1 nM",3.662
same,Normalized data (SEAP),"BclXL-v3, A-1155463 3.16 nM",36.4228
same,Raw data (SEAP),"BclXL-v3, A-1155463 3.16 nM",3.509
same,Normalized data (SEAP),"BclXL-v3, A-1155463 100 nM",68.011
same,Raw data (SEAP),"BclXL-v3, A-1155463 100 nM",6.552
same,Normalized data (SEAP),"BclXL-v3, A-1155463 316 nM",43.5621
same,Raw data (SEAP),"BclXL-v3, A-1155463 316 nM",4.196
same,Normalized data (SEAP),"BclXL-v3, A-1155463 1000 nM",47.9459
same,Raw data (SEAP),"BclXL-v3, A-1155463 1000 nM",4.619
same,Normalized data (SEAP),"BclXL-v3, A-1155463 3160 nM",98.7391
same,Raw data (SEAP),"BclXL-v3, A-1155463 3160 nM",9.512
same,Normalized data (SEAP),"BclXL-v3, A-1155463 10000 nM",92.8941
same,Raw data (SEAP),"BclXL-v3, A-1155463 10000 nM",8.949
same,Normalized data (SEAP),"BclXL, A-1155463 1 nM",5.357
same,Raw data (SEAP),"BclXL, A-1155463 1 nM",23.0325
